In the METLIN SMRT retention time set (Domingo-Almenara et al. 2019) one finds RP-LC retention time data, which are given here for 80 molecules.

The structures appear in SMILES notation.

A short description of this series: gradient 5% acetonitrile 3 min, to 50% in 2 min, to 85% in 15 min, held 3 min, 100 µL/min. As to conditions: column: Zorbax Extend-C18 2.1 x 50 mm; eluents: water / acetonitrile, 0.1% formic acid. The method, boiled down: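 Pure standards were analyzed in mixtures of ~100 molecules using HPLC coupled to a quadrupole time-of-flight mass spectrometer, in both positive and negative ionization mode. Separation used a Zorbax Extend-C18 column (2.1 × 50 mm, 1.8 μm) at 100 μL/min, with water and acetonitrile each containing 0.1% formic acid. Dead and dwell volumes were 40 μL and 900 μL, and data were collected over 3 months. Retention time was read from computationally picked adduct peaks, each inspected manually.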
With `CCOC(=O)C1CCN(c2cc3c(cc2NC(=O)C2CCCCC2)n(C)c(=O)c(=O)n3C)CC1`, the RP-LC retention time was determined as 906 s. The result for `CCCn1cc(CCNC(=O)Nc2ccc3c(c2)OCCO3)c2cccnc21` reads 704 s; that for `Cc1noc(-c2ccnc(-n3cnc(C(=O)NCc4cccc(Cl)c4)c3)c2)n1`, 760 s. `CCC1(O)CCC12CCN(C(=O)c1ccsc1)CC2` (stereo not given) registered an RP-LC retention time of 716 s. On to `NC(=O)[C@@H](CCC(F)(F)F)N(Cc1ccc(-c2ncon2)cc1F)S(=O)(=O)c1ccc(Cl)cc1`, for which the RP-LC retention time came out at 1030 s. The molecule `Cc1cc(NC(=O)CCCS(=O)(=O)c2ccc(Cl)cc2)n(C)n1` gave an RP-LC retention time of 648 s.

As to `N#Cc1ccc(-c2csc(NC(=O)c3ccc(Cl)cc3)n2)cc1`, the RP-LC retention time turned out to be 1140 s. Consider `CCc1noc(C2(NC(=O)c3ccccc3Cl)CCCCC2)n1`, for which the RP-LC retention time was determined as 936 s. With `Cc1cc(NC(=O)c2ccc3c(c2)CCCC3)n(C(C)C)n1` the figure was 835 s; with `CCOC(=O)N1CCN(C(=O)CSc2ncnc3c2oc2ccccc23)CC1`, 742 s; with `CCn1c(=O)c(N2CCN(C(=O)Nc3ccccc3Br)CC2)nc2cccnc21`, 991 s. The result for `N#Cc1c(NC(=O)c2ccc([N+](=O)[O-])cc2Cl)sc2c1CCCC2` reads 1050 s. `CC(C)N(C(=O)Cn1c(CNC(=O)c2ccco2)nc2ccccc21)c1ccccc1` gave an RP-LC retention time of 698 s. The molecule `O=C(C1CCCCC1)N1CCN(c2nc(CN3CCOCC3)cs2)CC1` showed an RP-LC retention time of 617 s. In turn, `COc1ccc(Cl)cc1NC(=O)N1CCN(C2=CC3=NC(C)CN3C=N2)CC1` (stereo not given) came in with an RP-LC retention time of 664 s. Regarding `CCc1nc(N)n(CC(=O)NCc2ccccc2Cl)c(=O)c1C`, the RP-LC retention time stood at 616 s. Molecule `O=C(CCc1nnc2ccc(NCc3ccccc3Cl)nn12)N1CCN(c2ccccn2)CC1` returned an RP-LC retention time of 613 s. Molecule `O=C(C1CCC1)N1CCc2sc(S(=O)(=O)Nc3ccc(Cl)cc3)cc2C1` returned an RP-LC retention time of 929 s. In turn, `O=C(c1cn(-c2cc(N3CCOCC3)ncn2)cn1)N1CCSCC1` had an RP-LC retention time of 685 s. The molecule `O=C(c1ccc(F)cc1)N1CCN(c2cc(-c3cccs3)[nH]n2)CC1` displayed an RP-LC retention time of 764 s. As for `Cc1nn(-c2ccc(N3CCCC3)nn2)c(C)c1CCC(=O)N1CCCC1`, the RP-LC retention time was 599 s.

As to `CCc1ccc2oc(C(=O)NCC(c3cccs3)N(C)C)cc(=O)c2c1` (stereo not given), the RP-LC retention time worked out at 654 s. `Cc1c(F)cccc1NC(=O)Nc1ccc(Nc2cc(-n3cccn3)ncn2)cc1` showed an RP-LC retention time of 866 s. Molecule `O=C(Cn1nc(C2CC2)cc1C(=O)N1CCCC1)NCc1cccc(Cl)c1` returned an RP-LC retention time of 782 s. The result for `CC(C)N1C(=O)C2(CCCCC2)C1C(=O)N1CCOCC1` (stereo not given) reads 633 s. Turning to `O=C(Nc1ccc(-c2ccn[nH]2)cc1)c1cccnc1`, the RP-LC retention time came to 678 s. `O=C(NCc1cccs1)c1ccc(-c2cccnc2)nc1`: the RP-LC retention time stood at 614 s. For the molecule `Cc1ccc(-c2noc(Cn3ccn(-c4ccccc4C)c(=O)c3=O)n2)cc1`, the RP-LC retention time came to 680 s.

Take `Cc1ccc2nc(-c3cccc(S(=O)(=O)N4CCOCC4)c3)cn2c1`: the RP-LC retention time worked out at 605 s.

In turn, `O=C(NC1CCCC1)c1ccc(Cn2nc(N3CCN(c4ccccc4)CC3)ccc2=O)o1` had an RP-LC retention time of 844 s. In turn, `CCOCCCNC(=O)C(C)n1c(=O)c(C(F)(F)F)nc2ccccc21` (stereo not given) registered an RP-LC retention time of 929 s. The molecule `O=C(Cc1nnc(-c2ccc3ncccc3c2)o1)Nc1ccc(OC(F)(F)F)cc1` returned an RP-LC retention time of 806 s.

`CC(C)c1c(C2CCN(C(=O)c3cc4ccccc4[nH]3)CC2)noc1N`: the RP-LC retention time turned out to be 824 s.

In the case of `O=C(C1CCN(c2ccc(Sc3ccccc3)nn2)CC1)N1CCOCC1`, the RP-LC retention time worked out at 647 s. Molecule `COCC(=O)Nc1nc(-c2ccc3c(c2)NC(=O)CO3)c(C)s1` registered an RP-LC retention time of 705 s. The molecule `Cc1ccc(N2C(=O)CCS2(=O)=O)cc1S(=O)(=O)NCCc1c[nH]c2ccccc12` had an RP-LC retention time of 799 s. `COc1ccc(Cl)cc1S(=O)(=O)N1CCC(C(=O)NCc2ccccn2)CC1` registered an RP-LC retention time of 594 s. With `CSc1cccc(NC(=O)N2CCC(C)(C(=O)NCc3ccc(C)cc3)CC2)c1` the figure was 917 s. As for `CCOc1ccc(N2C=C(C(=O)OC)S(=O)(=O)c3ccc(F)cc32)cc1`, the RP-LC retention time was 856 s. In turn, `O=C(NCCc1ccsc1)c1ccc(Cl)c(Cl)c1` returned an RP-LC retention time of 933 s. Turning to `N#Cc1ccccc1Cn1cnc2nc3c(cc2c1=O)CCCC3`, the RP-LC retention time amounted to 733 s. `CCc1ccccc1NC(=O)C1CCN(S(C)(=O)=O)c2ccccc2O1` (stereo not given) gave an RP-LC retention time of 912 s. The result for `O=C(CN1CC(c2nc(-c3cccs3)no2)C1)N1CCc2ccccc21` reads 605 s.

In turn, `Cc1nn(CC(=O)NC(C)c2ccc3c(c2)OCCO3)c(=O)c2c(C)n(-c3ccccc3)nc12` (stereo not given) had an RP-LC retention time of 827 s.

For `COc1ccc(F)cc1S(=O)(=O)N1CCN(C2CCN(C)C2=O)CC1` (stereo not given), the RP-LC retention time came out at 550 s. Take `Cc1cc(NC(=O)C2CCN(S(=O)(=O)c3ccc(F)cc3)CC2)n(C)n1`: the RP-LC retention time stood at 732 s. Molecule `Cc1ccc2[nH]cc(CCN3CC(C(=O)Nc4cccc(C)c4C)CC3=O)c2c1` (stereo not given) gave an RP-LC retention time of 820 s. The result for `O=C(NC1CCCCC1)C1CCc2sc(C(=O)N3CCOCC3)cc2C1` (stereo not given) reads 741 s.

On to `CCc1cccc(C)c1Nc1c(-c2cc(Br)ccc2O)nc2nc(C)cc(C)n12`, for which the RP-LC retention time was found to be 1040 s. Regarding `c1cc(CN2CC(Oc3ccc(-c4noc(C5CC5)n4)cc3)C2)cs1`, the RP-LC retention time was found to be 700 s.

With `Cc1nc(-c2csc(S(=O)(=O)N3CCCC(C(=O)NCCN4CCCCCC4)C3)c2)no1` (stereo not given), the RP-LC retention time amounted to 665 s. `CCc1cccc(C)c1NC(=O)C1CCCN(c2nnc(C)c3c(C)n(-c4ccccc4)nc23)C1` (stereo not given) returned an RP-LC retention time of 775 s. Molecule `CCOc1cc2ncc(C#N)c(Nc3ccc(F)c(Cl)c3)c2cc1NC(=O)/C=C/CN(C)C` had an RP-LC retention time of 727 s. In turn, `CS(=O)(=O)Nc1cccc(C2=NN(S(C)(=O)=O)C(c3cccc([N+](=O)[O-])c3)C2)c1` (stereo not given) had an RP-LC retention time of 740 s.

Regarding `Cc1nc2ccn(Cc3cccnc3)c(=O)c2cc1C(=O)N1CCOCC1`, the RP-LC retention time came to 552 s. The result for `CCOc1ccc(C(=O)Nc2cccnc2)nn1` reads 552 s. As for `COc1ccc(-c2nc3nc(C)cc(C)n3c2Nc2ccc(Cl)cc2)cc1`, the RP-LC retention time came to 730 s. With `CC(C)NC(=O)C1Cn2cccc2C(=O)N1C` (stereo not given) the figure was 651 s; with `COc1ccc(S(=O)(=O)N2CC3CN(C(=O)C4CCCCC4)CC(C2)O3)cc1`, 850 s.

Turning to `CCCCn1cc(S(=O)(=O)Nc2cccc(OC)c2)c2cccnc21`, the RP-LC retention time was found to be 912 s. `Cc1ccc2nc(CN3CCN(C(=O)NCc4ccc(F)cc4)CC3)oc2c1` had an RP-LC retention time of 690 s. Molecule `O=C(NCCc1nc(-c2ccc3c(c2)OCO3)n[nH]1)c1cc(F)ccc1Cl` gave an RP-LC retention time of 660 s. `COc1ccc(-c2ccnc3nc(CCc4ccc(OC)c(OC)c4)nn23)c(F)c1` returned an RP-LC retention time of 867 s. Turning to `Cc1ccc(CNC(=O)CN2C(=O)C3CCCCN3c3ccc(S(=O)(=O)N(C)C)cc32)cc1` (stereo not given), the RP-LC retention time was determined as 922 s. In turn, `CCCn1c(=O)sc2cc(S(=O)(=O)N3CCC(C(=O)Nc4ccc(Cl)cc4)CC3)ccc21` registered an RP-LC retention time of 1040 s. Take `CC(=O)N1C[C@@H]2CCCN3CCC[C@@H]([C@H]23)[C@H]1CCCC(=O)NCCCc1c(C)noc1C`: the RP-LC retention time came to 575 s. The molecule `Cc1cc(-c2nnc(-c3ccco3)o2)c(C)n1CC(=O)NCc1ccc(F)cc1` registered an RP-LC retention time of 849 s.

In the case of `CCCC(=O)Nc1nc(C(=O)OCC)cs1`, the RP-LC retention time is 700 s.

For `COc1cccc(CNC(=O)Nc2ccc3nc(N4CCN(C)CC4)cc(C)c3c2)c1`, the RP-LC retention time was 580 s. In turn, `Cc1ccc(C)c(-c2nc3ccccc3c(C(=O)N3CCN(c4ncccn4)CC3)c2C)c1` gave an RP-LC retention time of 903 s.

Regarding `CCCN(C)c1nccnc1OC1CCN(C(=O)C2CCC2)C1` (stereo not given), the RP-LC retention time is 765 s. On to `Cc1ccc(NC(=O)Nc2ccc3nncn3c2)c(C)c1`, for which the RP-LC retention time amounted to 747 s.

In the case of `Cc1nc(C)c(C(=O)Nc2nc(-c3ccc(C)c(C)c3)cs2)s1`, the RP-LC retention time was determined as 1060 s. Regarding `CCN1CCn2cc(S(=O)(=O)Nc3ccccc3F)cc2C1=O`, the RP-LC retention time was found to be 1070 s. With `Cc1ccc(N(C)S(=O)(=O)c2c(C)sc(C)c2-c2cc(C(F)(F)F)on2)cc1C`, the RP-LC retention time turned out to be 1370 s. The result for `Cc1cccc(N2CCN(C(=O)CN3CCN(Cc4ccc(F)cc4Cl)C3=O)CC2)c1` reads 957 s; that for `COc1cccc(Cn2cc(C(=O)O)nn2)c1`, 635 s; that for `O=S(=O)(c1cc(-c2cc(C(F)(F)F)on2)cs1)N(Cc1ccco1)C1CCCCC1`, 1300 s.

In the case of `COC(=O)C1=CN(c2ccc(F)c(F)c2)c2cc(F)ccc2S1(=O)=O`, the RP-LC retention time was found to be 860 s. On to `CCc1ccc(S(=O)(=O)N2c3ccccc3NC3=C(C(=O)CCC3)C2c2ccco2)cc1` (stereo not given), for which the RP-LC retention time is 923 s.
